Data: ChEMBL document CHEMBL4739716, “Gpr139 receptor modulators” (2020)

Experiments:
[1] = molecular target: T1, Probable G-protein coupled receptor 139 (Rattus norvegicus) (UniProt P0C0W8); experiment: Agonist activity at rat GPR139 expressed in CHO-K1 cells assessed as increase in calcium flux by calcium 5 dye based FLIPR assay relative to JNJ63533054; format: cell-based
T1 sequence (whole entry): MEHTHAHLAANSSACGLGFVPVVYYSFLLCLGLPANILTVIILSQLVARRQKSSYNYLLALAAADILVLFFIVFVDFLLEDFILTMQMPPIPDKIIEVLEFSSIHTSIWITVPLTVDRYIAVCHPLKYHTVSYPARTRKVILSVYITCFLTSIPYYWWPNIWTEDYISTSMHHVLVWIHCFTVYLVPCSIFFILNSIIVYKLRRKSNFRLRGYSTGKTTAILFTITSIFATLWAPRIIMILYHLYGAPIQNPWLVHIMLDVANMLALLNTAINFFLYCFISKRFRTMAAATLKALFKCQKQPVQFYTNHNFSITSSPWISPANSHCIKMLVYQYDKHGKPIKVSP

[2] = molecular target: T2, Probable G-protein coupled receptor 139 (Homo sapiens, UniProt Q6DWJ6); experiment: Agonist activity at human GPR139 expressed in CHO-K1 cells assessed as induction of beta-arrestin 2 recruitment incubated for 90 mins by PathHunter assay; format: cell-based
T2 sequence (Q6DWJ6 whole entry): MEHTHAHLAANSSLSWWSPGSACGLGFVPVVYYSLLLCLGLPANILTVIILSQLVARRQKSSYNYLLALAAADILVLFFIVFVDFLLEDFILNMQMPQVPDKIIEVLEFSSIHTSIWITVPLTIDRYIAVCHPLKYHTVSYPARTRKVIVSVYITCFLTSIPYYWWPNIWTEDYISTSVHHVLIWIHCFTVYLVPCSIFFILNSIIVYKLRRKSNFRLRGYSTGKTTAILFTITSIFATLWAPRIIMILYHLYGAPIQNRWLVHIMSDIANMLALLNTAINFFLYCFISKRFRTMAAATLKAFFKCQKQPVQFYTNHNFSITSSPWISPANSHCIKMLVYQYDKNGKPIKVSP

[3] = molecular target: T2, Probable G-protein coupled receptor 139; experiment: Agonist activity at human GPR139 expressed in CHO-K1 cells assessed as increase in calcium flux by calcium 5 dye based FLIPR assay; format: functional, cell-based
[4] = molecular target: T3, Probable G-protein coupled receptor 139 (Homo sapiens) (UniProt Q6DWJ6); experiment: Agonist activity at human GPR139 expressed in CHO-K1 cells assessed as induction of beta-arrestin 2 recruitment incubated for 90 mins by PathHunter assay relative to JNJ63533054; format: cell-based
T3 sequence (whole entry): T2 sequence (Q6DWJ6 whole entry)

[5] = molecular target: T3, Probable G-protein coupled receptor 139 (Homo sapiens); experiment: Agonist activity at human GPR139 expressed in CHO-K1 cells assessed as increase in calcium flux by calcium 5 dye based FLIPR assay relative to JNJ63533054; format: functional, cell-based; settings: filed as agonist
[6] = molecular target: T4, Probable G-protein coupled receptor 139 (Rattus norvegicus, UniProt P0C0W8); experiment: Agonist activity at rat GPR139 expressed in CHO-K1 cells assessed as increase in calcium flux by calcium 5 dye based FLIPR assay; format: cell-based
T4 sequence (P0C0W8 whole entry): T1 sequence (whole entry)

Structure (SMILES) | Emax ([1]; filed as agonist) [%] | EC50 ([2]; cho-k1) [nM] | EC50 [3] [nM] | Emax ([4]; filed as agonist) [%] | Emax [5] [%] | EC50 ([6]; cho-k1) [nM] | Emax [1] [%] | EC50 ([3]; cho-k1) [nM] | Emax [4] [%] | EC50 [6] [nM] | EC50 [2] [nM]
C[C@H](NC(=O)Cn1nc2ccc(C3CC3)nn2c1=O)c1ccc(OC(F)(F)F)cc1 | – | 10 | – | – | > 80 | – | < 25 | 1 | 25 | ≥ 100 | –
C[C@H](NC(=O)Cn1nc2c(NC3COC3)ccnn2c1=O)c1ccc(OC(F)(F)F)cc1 | 50 | – | – | – | > 80 | – | – | 1 | 25 | ≥ 100 | ≥ 100
C[C@H](NC(=O)Cn1nc2cc(OC3COC3)ccn2c1=O)c1ccc(OC(F)(F)F)cc1 | 50 | – | – | > 80 | > 80 | 1 | – | 1 | – | – | ≥ 100
C[C@H](NC(=O)Cn1nc2cccc(N3CCN(C)CC3)n2c1=O)c1ccc(OC(F)(F)F)cc1 | – | – | – | 50 | > 80 | – | 25 | 1 | – | ≥ 100 | ≥ 100
Cc1ccn2c(=O)n(CC(=O)N[C@@H](C)c3ccc(OC(F)(F)F)cc3)nc2c1 | 50 | 1 | < 1 | > 80 | > 80 | – | – | – | – | < 1 | –
COc1cccn2c(=O)n(CC(=O)N[C@@H](C)c3ccc(C)cc3)nc12 | 50 | – | < 1 | 50 | > 80 | 1 | – | – | – | – | < 1
C[C@H](NC(=O)Cn1nc2cc(Cl)cnn2c1=O)c1ccc(OC(F)(F)F)cc1 | 50 | – | – | – | > 80 | 1 | – | 1 | 25 | – | ≥ 100
C[C@H](NC(=O)Cn1nc2cc(Cl)ccn2c1=O)c1ccc(Cl)c(F)c1 | > 80 | 1 | < 1 | > 80 | > 80 | – | – | – | – | < 1 | –
COc1ccn2c(=O)n(CC(=O)N[C@@H](C)c3ccc(C)cc3)nc2c1 | 50 | 1 | < 1 | 50 | > 80 | – | – | – | – | < 1 | –
C[C@H](NC(=O)Cn1nc2cc(N3CCCCC3)ccn2c1=O)c1ccc(OC(F)(F)F)cc1 | > 80 | – | < 1 | > 80 | 50 | – | – | – | – | < 1 | ≥ 100
CC(NC(=O)Cn1nc2ccccn2c1=O)c1ncc(Cl)cc1F (configuration not stated) | – | – | ≥ 100 | – | 50 | – | < 25 | – | 25 | ≥ 100 | ≥ 100
O=C(Cn1nc2cccnn2c1=O)NC1(c2cccc(Cl)c2)CC1 | 50 | – | ≥ 100 | – | 50 | – | – | – | < 25 | ≥ 100 | ≥ 100
Cc1ccc([C@H](C)NC(=O)Cn2nc3c(NCC(F)F)cccn3c2=O)cc1 | > 80 | – | < 1 | 50 | > 80 | – | – | – | – | < 1 | < 1
Cc1cnn2c(=O)n(CC(=O)N[C@@H](C)c3ccc(Cl)c(F)c3)nc2c1 | > 80 | – | – | 50 | > 80 | 1 | – | 1 | – | – | ≥ 100
C[C@H](NC(=O)Cn1nc2ccccn2c1=O)c1ccc(F)cc1 | – | – | – | – | 50 | – | 25 | 10 | < 25 | ≥ 100 | ≥ 100
C[C@H](NC(=O)Cn1nc2cc(N3CCC[C@H](O)C3)ccn2c1=O)c1ccc(OC(F)(F)F)cc1 | > 80 | – | – | > 80 | > 80 | 1 | – | 1 | – | – | ≥ 100
Cc1cc([C@H](C)NC(=O)Cn2nc3ccccn3c2=O)ccc1Cl | > 80 | 1 | < 1 | > 80 | > 80 | 1 | – | – | – | – | –
C[C@H](NC(=O)Cn1nc2ncccn2c1=O)c1ccc(C2CC2)c(F)c1 | – | – | – | 50 | > 80 | 10 | 25 | 1 | – | – | ≥ 100
Cc1ccn2c(=O)n(CC(=O)N[C@@H](C)c3ccc(Cl)c(F)c3)nc2n1 | 50 | 1 | – | – | > 80 | – | – | 1 | 25 | ≥ 100 | –
Cc1cnc2nn(CC(=O)N[C@@H](C)c3ccc(OC(F)(F)F)c(F)c3)c(=O)n2c1 | – | 1 | – | 50 | > 80 | 10 | 25 | 1 | – | – | –
C[C@@H](NC(=O)Cn1nc2ccccn2c1=O)c1ccc(Cl)c(F)c1 | 50 | – | ≥ 100 | – | > 80 | – | – | – | 25 | < 1 | ≥ 100
COc1cccc2nn(CC(=O)N[C@@H](C)c3ccc(OC(F)(F)F)cc3)c(=O)n12 | 50 | 1 | < 1 | > 80 | > 80 | 1 | – | – | – | – | –

Second part, the molecule after the results:

Emax ([1]; filed as agonist) [%] | EC50 ([2]; cho-k1) [nM] | EC50 [3] [nM] | Emax ([4]; filed as agonist) [%] | Emax [5] [%] | EC50 ([6]; cho-k1) [nM] | Emax [1] [%] | EC50 ([3]; cho-k1) [nM] | Emax [4] [%] | EC50 [6] [nM] | EC50 [2] [nM] | Structure (SMILES)
50 | 1 | < 1 | 50 | 50 | 1 | – | – | – | – | – | COc1cccc2nn(CC(=O)N[C@@H](C)c3ccc(Cl)cc3)c(=O)n12
50 | – | – | 50 | > 80 | 1 | – | 1 | – | – | ≥ 100 | Cc1ccc([C@H](C)NC(=O)Cn2nc3c(F)cccn3c2=O)cc1
50 | 1 | < 1 | 50 | > 80 | – | – | – | – | < 1 | – | Cc1ccc([C@H](C)NC(=O)Cn2nc3ccc(C)cn3c2=O)cc1
– | – | ≥ 100 | – | 50 | – | 25 | – | 25 | ≥ 100 | ≥ 100 | Cc1ccc([C@H](C)NC(=O)Cn2nc3c(C4CCN(C)C4)cccn3c2=O)cc1 (some centres not stated)
> 80 | 1 | < 1 | > 80 | > 80 | – | – | – | – | < 1 | – | C[C@H](NC(=O)Cn1nc2cc(C3CC3)cnn2c1=O)c1ccc(Cl)c(F)c1
> 80 | 1 | < 1 | > 80 | > 80 | – | – | – | – | < 1 | – | COc1cnn2c(=O)n(CC(=O)N[C@@H](C)c3ccc(Cl)c(F)c3)nc2c1
> 80 | – | – | – | > 80 | 1 | – | 1 | 25 | – | ≥ 100 | C[C@H](NC(=O)Cn1nc2cc(N3CCC(O)CC3)ccn2c1=O)c1ccc(OC(F)(F)F)cc1
50 | 10 | – | 50 | > 80 | 1 | – | 1 | – | – | – | C[C@H](NC(=O)Cn1nc2cccnn2c1=O)c1ccc(OC(F)(F)F)c(F)c1
50 | 1 | < 1 | 50 | > 80 | – | – | – | – | < 1 | – | C[C@H](NC(=O)Cn1nc2ccc(F)cn2c1=O)c1ccc(Cl)cc1
50 | – | – | – | > 80 | – | – | 1 | 25 | ≥ 100 | < 1 | C[C@H](NC(=O)Cn1nc2c(C(F)F)nccn2c1=O)c1ccc(OC(F)(F)F)cc1
> 80 | – | – | > 80 | > 80 | 10 | – | 1 | – | – | ≥ 100 | Cc1ccc([C@H](C)NC(=O)Cn2nc3ncccn3c2=O)cc1Cl
> 80 | – | – | – | > 80 | 1 | – | 1 | 25 | – | ≥ 100 | CC[C@H](NC(=O)Cn1nc2cccnn2c1=O)c1ccc(Cl)c(F)c1
– | 10 | – | 50 | > 80 | 1 | 25 | 1 | – | – | – | Cc1ncc([C@H](C)NC(=O)Cn2nc3cc(Cl)ccn3c2=O)cc1F
> 80 | – | < 1 | > 80 | > 80 | – | – | – | – | < 1 | < 1 | COc1nc2nn(CC(=O)N[C@@H](C)c3ccc(Cl)c(F)c3)c(=O)n2cc1C
50 | 1 | – | > 80 | > 80 | 1 | – | 1 | – | – | – | Cc1cc(Cl)ccc1[C@H](C)NC(=O)Cn1nc2ccccn2c1=O
